{
  "source": "patent US20030039708A1",
  "about": "“NON-MA HUANG HERB WEIGHT LOSS PRODUCT” (priority 2001, published 2003)",
  "origin": "cited, not measured here",
  "key": {"[1]": {"conditions": "in vivo"}, "[2]": {"conditions": "obese patients"}, "[3]": {"conditions": "placebo group gained weight over the length of the trial"}, "[4]": {"conditions": "double-blind study"}, "[5]": {"conditions": "placed in water"}, "[6]": {"conditions": "in combination with diet, versus diet alone"}, "[7]": {"experiment": "not given", "remark": "listed apart in the source"}},
  "note": "Where two headings read alike, the source gives them in different places.",
  "data": [
    {"compound": "O=C(O[C@@H]1Cc2c(O)cc(O)cc2O[C@@H]1c1cc(O)c(O)c(O)c1)c1cc(O)c(O)c(O)c1", "note": "[Epigallocatechin gallate]", "values": [
      {"measurement": "blood cholesterol", "setting": "[1]", "value": "significantly reduced"},
      {"measurement": "blood triglyceride", "setting": "[1]", "value": "significantly reduced"},
      {"measurement": "body weight", "setting": "[1]", "value": "significantly reduced"},
      {"measurement": "food intake", "setting": "[1]", "value": "significantly reduced"},
      {"measurement": "growth of the prostate, uterus, and ovary", "setting": "[1]", "value": "significantly reduced"}
    ]},
    {"compound": "[Cr]", "note": "[chromium]", "values": [
      {"measurement": "abdominal fat gained", "setting": "placebo group gained 6.5%", "value": 1, "unit": "%"},
      {"measurement": "reduction of insulin resistance", "setting": "statistically significant, maintained at the end of eight months", "value": 40, "unit": "%"},
      {"measurement": "lean body mass", "setting": "[2]", "value": "increased"}
    ]},
    {"compound": "Glucomannan", "values": [
      {"measurement": "body weight change", "setting": "[3]", "value": "weight loss"},
      {"measurement": "HDL cholesterol", "setting": "[4]", "value": "no significant increase"},
      {"measurement": "LDL cholesterol", "setting": "[4]", "value": "significant reductions"},
      {"measurement": "systolic blood pressure", "setting": "[4]", "value": "reduced"},
      {"measurement": "total cholesterol", "setting": "[4]", "value": "significant reductions"},
      {"measurement": "triglycerides", "setting": "[4]", "value": "significant reductions"},
      {"measurement": "swelling in water", "setting": "[5]", "value": "up to 17 times its original volume"},
      {"measurement": "blood glucose", "setting": "[6]", "value": "more effective than diet alone"},
      {"measurement": "body weight", "setting": "[6]", "value": "more effective than diet alone"},
      {"measurement": "hunger and satiety sensation", "setting": "[6]", "value": "more effective than diet alone"},
      {"measurement": "total serum cholesterol", "setting": "[6]", "value": "more effective than diet alone"},
      {"measurement": "tolerability", "setting": "[7]; long term treatment of severe obesity", "value": "well tolerated"},
      {"measurement": "weight loss in relation to the fatty mass alone", "setting": "[7]; severely obese patients, diet plus glucomannan", "value": "more significant weight loss"}
    ]}
  ]
}
